Results reported in patent US6355799B1, “Substituted benzene compounds, process for their preparation, and herbicidal and defoliant compositions containing them” (ISK Americas Incorporated, priority 1997, dated 2002).

Legend:
Type in all cases: in vivo
[1] = test system: field corn (Zea mays L., var. Dekalb 535, CORN); assay: Post-emerge test, crop safety; conditions: rating scale 0-100 (0 no damage, 100 complete death), 14 days after application
Summary of the method: (§1)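 Sandy loam pots; pre-emerge: sown 1 d pre-spray, surface-watered after, then bottom-watered. Post-emerge: sown 8–21 d before, 2–3 leaf stage, + 0.25% v/v NIS, bottom-watered. Acetone, 187 l/ha track spray, 15–1000 g ai/ha. 0–100 injury score, day 14.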

[2] = test system: upland rice (Oryza sp., var. Tebonnet, RICE); assay: Post-emerge test, crop safety; conditions: rating scale 0-100 (0 no damage, 100 complete death), 14 days after application
Summary of the method: as §1

[3] = test system: field corn (Zea mays L., var. Dekalb 535, CORN); assay: Pre-emerge test, crop safety; conditions: rating scale 0-100, 14 days after application
Summary of the method: (§2)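 Herbicidal damage is scored 0 (none) to 100 (complete plant death) two weeks after a simulated field spray. Rates span 15–1000 g ai/ha, delivered in acetone at 187 l/ha. For post-emergence treatments, plants have 2–3 leaves and the spray carries 0.25% v/v non-ionic surfactant.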

[4] = test system: upland rice (Oryza sp., var. Tebonnet, RICE); assay: Pre-emerge test, crop safety; conditions: rating scale 0-100, 14 days after application
Summary of the method: as §2

[5] = test system: johnsongrass (Sorghum halepense, SORHA); assay: Post-emerge test, greenhouse herbicide activity screening; conditions: rating scale 0-100 (0 no damage, 100 complete death), 14 days after application
Summary of the method: (§3)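 Compounds in acetone were track-sprayed at 15–1000 g ai/ha: pre-emergence onto soil sown the previous day, then top-watered to incorporate and later bottom-watered; post-emergence onto 2–3 leaf plants with 0.25% v/v surfactant, bottom-watered only. Ratings on a 0–100 phytotoxicity scale were taken at day 14.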

[6] = test system: redroot pigweed (Amaranthus retroflexus, AMARE); assay: as above; conditions: rating scale 0-100 (0 no damage, 100 complete death), 14 days after application
Summary of the method: as §3

[7] = test system: velvetleaf (Abutilon theophrasti, ABUTH); assay: as above; conditions: rating scale 0-100 (0 no damage, 100 complete death), 14 days after application
Summary of the method: as §3

[8] = test system: green foxtail (Setaria viridis, SETVI); assay: as above; conditions: rating scale 0-100 (0 no damage, 100 complete death), 14 days after application
Summary of the method: as §3

[9] = test system: lambsquarters (Chenopodium album, CHEAL); assay: as above; conditions: rating scale 0-100 (0 no damage, 100 complete death), 14 days after application
Summary of the method: as §3

[10] = test system: ivyleaf morningglory (Ipomoea hederacea, IPOHE); assay: as above; conditions: rating scale 0-100 (0 no damage, 100 complete death), 14 days after application
Summary of the method: as §3

[11] = test system: large crabgrass (Digitaria sanguinalis, DIGSA); assay: as above; conditions: rating scale 0-100 (0 no damage, 100 complete death), 14 days after application
Summary of the method: as §3

[12] = test system: sicklepod (Cassia obtusifolia, CASOB); assay: as above; conditions: rating scale 0-100 (0 no damage, 100 complete death), 14 days after application
Summary of the method: as §3

[13] = test system: barnyardgrass (Echinochloa crus-galli, ECHCG); assay: as above; conditions: rating scale 0-100 (0 no damage, 100 complete death), 14 days after application
Summary of the method: as §3

[14] = test system: johnsongrass (Sorghum halepense, SORHA); assay: Pre-emerge test, greenhouse herbicide activity screening; conditions: rating scale 0-100, 14 days after application
Summary of the method: as §1

[15] = test system: velvetleaf (Abutilon theophrasti, ABUTH); assay: as above; conditions: rating scale 0-100, 14 days after application
Summary of the method: as §1

[16] = test system: green foxtail (Setaria viridis, SETVI); assay: as above; conditions: rating scale 0-100, 14 days after application
Summary of the method: as §1

[17] = test system: lambsquarters (Chenopodium album, CHEAL); assay: as above; conditions: rating scale 0-100, 14 days after application
Summary of the method: as §1

[18] = test system: ivyleaf morningglory (Ipomoea hederacea, IPOHE); assay: as above; conditions: rating scale 0-100, 14 days after application
Summary of the method: as §1

[19] = test system: common ragweed (Ambrosia artemisizfolia L., AMBEL); assay: as above; conditions: rating scale 0-100, 14 days after application
Summary of the method: as §1

[20] = test system: large crabgrass (Digitaria sanguinalis, DIGSA); assay: as above; conditions: rating scale 0-100, 14 days after application
Summary of the method: as §1

[21] = test system: sicklepod (Cassia obtusifolia, CASOB); assay: as above; conditions: rating scale 0-100, 14 days after application
Summary of the method: as §1

[22] = test system: barnyardgrass (Echinochloa crus-galli, ECHCG); assay: as above; conditions: rating scale 0-100, 14 days after application
Summary of the method: as §1

[23] = test system: redroot pigweed (Amaranthus retroflexus, AMARE); assay: as above; conditions: rating scale 0-100, 14 days after application
Summary of the method: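 Visual ratings on a 0-100 scale (0 no damage, 100 all plants dead) were taken at 14 days after treatment. Rates of 15-1000 g ai/ha in acetone, 187 l/ha, were sprayed onto soil one day after planting (pre-emerge) or onto 2-3 leaf plants with 0.25% v/v surfactant (post-emerge).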

CCCCCOC(=O)C(Cl)Cc1c(OC)c(Cl)cc(F)c1-n1c(=O)cc(C(F)(F)F)n(C)c1=O (single isomer, unassigned) [14-10]
Post-emerge phytotoxicity rating CORN (crop damage) ([1]; Rate 63 g ai/ha): 20
Post-emerge phytotoxicity rating CORN (crop damage) ([1]; Rate 250 g ai/ha): 60
Post-emerge phytotoxicity rating RICE (crop damage) ([2]; Rate 63 g ai/ha): 0
Post-emerge phytotoxicity rating RICE (crop damage) ([2]; Rate 250 g ai/ha): 20
Pre-emerge phytotoxicity rating, crop damage CORN ([3]; 63 g ai/ha): 0
Pre-emerge phytotoxicity rating, crop damage CORN ([3]; 250 g ai/ha): 40
Pre-emerge phytotoxicity rating, crop damage RICE ([4]; 63 g ai/ha): 20
Pre-emerge phytotoxicity rating, crop damage RICE ([4]; 250 g ai/ha): 30
Post-emerge Herbicidal Activity, phytotoxicity rating SORHA ([5]; Rate 63 g ai/ha): 20
Post-emerge Herbicidal Activity, phytotoxicity rating SORHA ([5]; Rate 250 g ai/ha): 50
Post-emerge Herbicidal Activity, phytotoxicity rating AMARE ([6]; Rate 63 g ai/ha): 90
Post-emerge Herbicidal Activity, phytotoxicity rating AMARE ([6]; Rate 250 g ai/ha): 100
Post-emerge Herbicidal Activity, phytotoxicity rating ABUTH ([7]; Rate 63 g ai/ha): 80
Post-emerge Herbicidal Activity, phytotoxicity rating ABUTH ([7]; Rate 250 g ai/ha): 100
Post-emerge Herbicidal Activity, phytotoxicity rating SETVI ([8]; Rate 63 g ai/ha): 50
Post-emerge Herbicidal Activity, phytotoxicity rating SETVI ([8]; Rate 250 g ai/ha): 90
Post-emerge Herbicidal Activity, phytotoxicity rating CHEAL ([9]; Rate 63 g ai/ha): 90
Post-emerge Herbicidal Activity, phytotoxicity rating CHEAL ([9]; Rate 250 g ai/ha): 100
Post-emerge Herbicidal Activity, phytotoxicity rating IPOHE ([10]; Rate 63 g ai/ha): 70
Post-emerge Herbicidal Activity, phytotoxicity rating IPOHE ([10]; Rate 250 g ai/ha): 80
Post-emerge Herbicidal Activity, phytotoxicity rating DIGSA ([11]; Rate 63 g ai/ha): 10
Post-emerge Herbicidal Activity, phytotoxicity rating DIGSA ([11]; Rate 250 g ai/ha): 100
Post-emerge Herbicidal Activity, phytotoxicity rating CASOB ([12]; Rate 63 g ai/ha): 80
Post-emerge Herbicidal Activity, phytotoxicity rating CASOB ([12]; Rate 250 g ai/ha): 90
Post-emerge Herbicidal Activity, phytotoxicity rating ECHCG ([13]; Rate 63 g ai/ha): 95
Post-emerge Herbicidal Activity, phytotoxicity rating ECHCG ([13]; Rate 250 g ai/ha): 100
Pre-emerge herbicidal activity, phytotoxicity rating SORHA ([14]; 63 g ai/ha): 0
Pre-emerge herbicidal activity, phytotoxicity rating SORHA ([14]; 250 g ai/ha): 30
Pre-emerge herbicidal activity, phytotoxicity rating ABUTH ([15]; 63 g ai/ha): 0
Pre-emerge herbicidal activity, phytotoxicity rating ABUTH ([15]; 250 g ai/ha): 90
Pre-emerge herbicidal activity, phytotoxicity rating SETVI ([16]; 63 g ai/ha): 0
Pre-emerge herbicidal activity, phytotoxicity rating SETVI ([16]; 250 g ai/ha): 0
Pre-emerge herbicidal activity, phytotoxicity rating CHEAL ([17]; 63 g ai/ha): 0
Pre-emerge herbicidal activity, phytotoxicity rating CHEAL ([17]; 250 g ai/ha): 100
Pre-emerge herbicidal activity, phytotoxicity rating IPOHE ([18]; 63 g ai/ha): 0
Pre-emerge herbicidal activity, phytotoxicity rating IPOHE ([18]; 250 g ai/ha): 70
Pre-emerge herbicidal activity, phytotoxicity rating AMBEL ([19]; 63 g ai/ha): 50
Pre-emerge herbicidal activity, phytotoxicity rating AMBEL ([19]; 250 g ai/ha): 100
Pre-emerge herbicidal activity, phytotoxicity rating DIGSA ([20]; 63 g ai/ha): 0
Pre-emerge herbicidal activity, phytotoxicity rating DIGSA ([20]; 250 g ai/ha): 90
Pre-emerge herbicidal activity, phytotoxicity rating CASOB ([21]; 63 g ai/ha): 0
Pre-emerge herbicidal activity, phytotoxicity rating CASOB ([21]; 250 g ai/ha): 0
Pre-emerge herbicidal activity, phytotoxicity rating ECHCG ([22]; 63 g ai/ha): 0
Pre-emerge herbicidal activity, phytotoxicity rating ECHCG ([22]; 250 g ai/ha): 0
Pre-emerge herbicidal activity, phytotoxicity rating AMARE ([23]; 63 g ai/ha): 100
Pre-emerge herbicidal activity, phytotoxicity rating AMARE ([23]; 250 g ai/ha): 100
